Assays:
Assay type in all cases: cell-based
[1] = test system: fibroblasts CAF47, CAF51, CAF98, and CAF104; experiment: Confirmation of inhibition of senescence of fibroblasts (shape observation); conditions: FIG. 2
Procedure: An experiment was performed to confirm changes in shapes of fibroblasts by treating several fibroblasts CAF47, CAF51, CAF98, and CAF104 with an anti-cancer drug, 5-fluorouracil (5-FU), and then treating Example thereto.
FIG. 2 illustrates results of observing the shapes of fibroblasts under various conditions according to Experimental Example of the present disclosure.

[2] = test system: SNU668 cells; experiment: Cell viability of gastric cancer cells cultured in fibroblast conditioned media; conditions: FIG. 3
Procedure: Gastric cancer cells, SNU668 cells, were cultured in conditioned media of fibroblasts, CAF98 and CAF104, respectively, and treated with Example to confirm changes in cell viability of cancer cells.
FIG. 3 illustrates results of confirming the cell viability of SNU66, a gastric cancer cell, under various conditions according to Experimental Example of the present disclosure.

[3] = test system: SNU668; experiment: Migration of gastric cancer cells in fibroblast condition media / co-culture with CAFs; conditions: for migration of gastric cancer cells: FIGS. 4 and 5
Procedure: An experiment was performed to confirm changes in migration of gastric cancer cells when treating gastric cancer cells with a substance according to Example (ftaxilide).
SNU668 was co-cultured with 5-FU in various types of fibroblast condition media, and sequentially additionally treated with 5-FU and Example to confirm changes in the migration of gastric cancer cells.
FIG. 4 illustrates results of observing the migration of SNU668, a gastric cancer cell, under various conditions according to Experimental Example of the present disclosure.
FIG. 5 illustrates results of measuring the migration of SNU668, a gastric cancer cell, under various conditions according to Experimental Example of the present disclosure.

[4] = CAF treated with Example (100 μM 5-FU+5 μM Example)

Row | Structure (SMILES) | shapes of fibroblasts ([1]; fibroblasts treated with 5-FU, then with Example) | cell viability of cancer cells ([2]; SNU668 in conditioned medium of CAF98 and CAF104, 5-FU, further treated with Example (C98_5FU_Ftaxil, C104_5FU_Ftaxil)) | senescence of CAF [3, 4] | migration of gastric cancer cells [3, 4] | shapes of fibroblasts (characteristics of senescent cells) ([1]; fibroblasts CAF47, CAF51, CAF98, CAF104 treated with 5-FU) | cell viability of cancer cells ([2]; SNU668 in conditioned medium of CAF98 and CAF104, treated with 5-FU (C98_5FU, C104_5FU)) | migration of gastric cancer cells ([3]; CAFs senesced by 5-FU then co-cultured with SNU668 (100 μM 5-FU)) | migration of gastric cancer cells ([3]; SNU668 treated with 5-FU (SNU668+5FU))
1 | Cc1cccc(C)c1NC(=O)c1ccccc1C(=O)O [Example, Ftaxilide] | the senescent fibroblasts returned to their original shapes | decreased again | the senescence of CAF was prevented | decreased again |  |  |  | 
2 | O=c1[nH]cc(F)c(=O)[nH]1 [Example 5-FU, 5-fluorouracil] |  |  |  |  | the cell sizes increased and the cell growth rate slowed down | the cell viability of cancer cells further increased | the migration of gastric cancer cells further increased | the migration of gastric cancer cells increased

— patent US20240197658A1, “COMPOSITION FOR INHIBITING ANTI-CANCER DRUG RESISTANCE” (AJOU UNIVERSITY INDUSTRY-ACADEMIC COOPERATION FOUNDATION, priority 2022, published 2024)
